Assay results published in patent US20250345292A1, “COMBINATION OF ALBUTEROL AND BUDESONIDE FOR THE TREATMENT OF ASTHMA” (priority 2022, published 2025).

What was measured:
[1] = system: patients with mild-to-moderate asthma; experiment: Phase 3 clinical trial, albuterol-budesonide combination vs. mono-components, four times daily for 12 weeks; assay type: in vivo, human; details: for Change from baseline in FEV1 AUC0-6 over 12 weeks, LSM / Change from baseline in trough FEV1 over 12 weeks, LSM: four times daily
Description: A Phase 3 clinical study evaluated contributions of the mono-components albuterol and budesonide to albuterol/budesonide combination efficacy in patients with mild-to-moderate asthma ≥4 years. Patients≥12 years were randomized 1:1:1:1:1 to four-times-daily albuterol/budesonide 180/160 or 180/80 μg, albuterol 180 μg, budesonide 160 μg or placebo for 12 weeks; patients 4-11 years were not included in this analysis set.
In the study, 1001 patients with mild-to-moderate asthma were randomized 1:1:1:1:1 to ABD 180/160 μg or 180/80 μg, albuterol (A) 180 μg, budesonide (B) 160 μg, or placebo, all four times daily (QID), for 12 weeks. […] Secondary endpoints included time to onset, as measured by 15% improvement in FEV1 within 30 minutes on Day 1, and duration of effect, and Asthma Control Questionnaire-7 (ACQ-7) responder (≥0.5-point reduction from baseline) analysis at Week 12.

[2] = system: patients with uncontrolled moderate-to-severe asthma; experiment: Phase 3 clinical trial, as-needed albuterol-budesonide fixed dose combination vs. albuterol alone: efficacy and study medication use; assay type: in vivo, human; details: for % of patients with a severe exacerbation / number of patients with a severe exacerbation: as-needed use
[3] = system: patients with uncontrolled moderate-to-severe asthma; details: human, in vivo, 180 μg
Description: (§1) Safety endpoints (adverse events [AEs] and serious adverse events [SAEs]) were assessed from date of informed consent/assent through the safety follow-up.
(§2) All randomized patients who received any amount of study drug, classified by the study medication they were randomized to, were included in the efficacy analyses comparing albuterol-budesonide 180/80-μg with albuterol. […] All patients receiving any amount of randomized study medication, and classified by the study medication they actually received, were included for all safety analyses.

[4] = system: patients with uncontrolled moderate-to-severe asthma; experiment: Phase 3 clinical trial, albuterol-budesonide FDC vs. albuterol alone: safety endpoints (adverse events)
Description: as §1, §2

[5] = vs placebo, full analysis set ≥12 years
[6] = comparison 180/80-μg versus albuterol, all patients
[7] = comparison 180/160-μg versus albuterol, excludes children
[8] = comparison albuterol-budesonide 180/80-μg versus albuterol, all patients
[9] = comparison albuterol-budesonide 180/160-μg versus albuterol, excludes children (albuterol n=1,014)
[10] = AE in ≥2% of patients in any group
[11] = treatment-related, investigator-assessed AE

`CCCC1O[C@@H]2C[C@H]3[C@@H]4CCC5=CC(=O)C=C[C@]5(C)[C@H]4[C@@H](O)C[C@]3(C)[C@]2(C(=O)CO)O1` (mixture of isomers) [budesonide 160 μg, (RS)-11β,21-dihydroxy-16α,17α-(butylidenebis(oxy)) pregna-1,4-diene-3,20-dione] was tested, and the “Change from baseline in FEV1 AUC0-6 over 12 weeks, LSM” value ([1]; full analysis set ≥12 years) was 178.0 mL, the “Change from baseline in trough FEV1 over 12 weeks, LSM” value ([1]; full analysis set ≥12 years) was 108.9 vs mL and the “Change from baseline in trough FEV1 over 12 weeks, difference in LSM” value [1, 5] was 73.3 mL.
`CC(C)(C)NCC(O)c1ccc(O)c(CO)c1` (stereo not shown) [albuterol 180-μg, 4-(2-(tert-butylamino)-1-hydroxyethyl)-2-(hydroxymethyl) phenol] was tested, and the “Annualized severe exacerbation rate” value [2, 6] was 0.61, the “Annualized total systemic glucocorticoid exposure (prednisone equivalents), median” value [2, 6] was 0.0 mg/year and the “Annualized severe exacerbation rate” value [2, 7] was 0.59. For the same molecule, the “Annualized total systemic glucocorticoid exposure (prednisone equivalents), median” value [2, 7] was 0.0 mg/year, the “% of patients with a severe exacerbation” value [2, 8] was 26.1% and the “number of patients with a severe exacerbation” value [2, 8] was 276. For the same molecule, the “% of patients with a severe exacerbation” value [2, 9] was 26.2%, the “number of patients with a severe exacerbation” value [2, 9] was 266 and the “severe exacerbations requiring ED or urgent care visits (number)” value ([2]; per treatment arm) was 66. The “severe exacerbations requiring hospitalization (number)” value ([2]; per treatment arm) was 17, the “responders (onset of effect)” value ([1]; Day 1, 15% improvement in FEV1 within 30 minutes) was 42.9% and the “Median time to onset” value ([1]; Day 1, 15% improvement in FEV1 within 30 minutes, responders) was 9.5 min. The “Median duration of effect” value ([1]; Day 1, responders) was 168.2 min, the “percentages of ACQ-7 responders” value ([1]; Week 12, ≥0.5-point reduction from baseline) was 47.2% and the “bronchodilation with repeated use over 1-4 weeks” value ([1]; compared with placebo) was “no difference”. The “Change from baseline in FEV1 AUC0-6 over 12 weeks, LSM” value ([1]; full analysis set ≥12 years) was 157.2 vs mL, the “Change from baseline in trough FEV1 over 12 weeks, LSM” value ([1]; full analysis set ≥12 years) was 2.7 mL and the “Change from baseline in FEV1 AUC0-6 over 12 weeks, difference in LSM” value [1, 5] was 60.5 mL. For the same molecule, the “frequency of SAEs, including deaths” value [3] was 4.5%, the “Asthma, %” value [4, 10] was 3.3% and the “Back pain, %” value [4, 10] was 1.9%. For the same molecule, the “Bronchitis, %” value [4, 10] was 2.6%, the “COVID-19, %” value [4, 10] was 4.4% and the “Headache, %” value [4, 10] was 4.7%. For the same molecule, the “Hypertension, %” value [4, 10] was 2.5%, the “Influenza, %” value [4, 10] was 1.3% and the “Nasopharyngitis, %” value [4, 10] was 5.1%. For the same molecule, the “Sinusitis, %” value [4, 10] was 2.3%, the “Upper respiratory tract infection, %” value [4, 10] was 2.5% and the “Patients with any AE, %” value ([4]; Table 1) was 46.4%. For the same molecule, the “frequency of AEs leading to discontinuation of treatment” value ([4]; human, in vivo) was 0.9%, the “frequency of inhaled glucocorticoid-associated adverse events” value ([4]; human, in vivo) was 1.3% and the “deaths (number)” value ([4]; no deaths considered treatment-related) was 1. For the same molecule, the “frequency of any AE” value ([4]; randomized treatment groups) was 46.4%, the dysphonia [4, 11] was 0.4% and the oral candidiasis [4, 11] was 0.5%. The oropharyngeal candidiasis [4, 11] was 0.1%.
